Experiments:
Assay in all cases: relative viability (nuclei count vs DMSO), 5 days (fraction); higher = more cells survive
TGX 221 + Pictilisib = compound: CC1=CN2C(=O)C=C(N=C2C(=C1)C(C)NC3=CC=CC=C3)N4CCOCC4 [TGX 221] + CS(=O)(=O)N1CCN(Cc2cc3nc(-c4cccc5[nH]ncc45)nc(N4CCOCC4)c3s2)CC1 [Pictilisib] (partner 1 µM)
In short: (§1)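 A single step with final 0.05% Triton X-100, 1% formaldehyde and 1 ug/ml Hoechst fixed the cells and stained nuclei 5 days after treatment. Lung cancer cell lines in 1536-well plates had been treated by pin tool the day after seeding with one drug alone or a fixed anchor-drug dose plus five library-drug doses (not always all listed) in √10 steps, and nuclei were counted on 4× images. Relative viability is the ratio of nuclei in treated wells to nuclei in vehicle wells, taken as the median of duplicate plates.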

[1] = compound: O=C(CCCCCCNC(=O)c1cnc(N(c2ccccc2)c2ccccc2)nc1)NO [Ricolinostat] + CCNC(=O)c1noc(-c2cc(C(C)C)c(O)cc2O)c1-c1ccc(CN2CCOCC2)cc1 [Luminespib] (partner 0.01 µM)
In short: as §1

Ricolinostat + Lapatinib = compound: O=C(CCCCCCNC(=O)c1cnc(N(c2ccccc2)c2ccccc2)nc1)NO [Ricolinostat] + CS(=O)(=O)CCNCc1ccc(-c2ccc3ncnc(Nc4ccc(OCc5cccc(F)c5)c(Cl)c4)c3c2)o1 [Lapatinib] (partner 2 µM)
In short: as §1

[2] = compound: C1=CC=C(C(=C1)C2=CC=C(C=C2)C3=CSC4=C3C(=C(C(=O)N4)C#N)O)O + Cc1nc(Nc2ncc(C(=O)Nc3c(C)cccc3Cl)s2)cc(N2CCN(CCO)CC2)n1 [Dasatinib] (partner 0.075 µM)
In short: as §1

Row | Cell Line | relative viability (TGX 221 + Pictilisib; first compound 0.08 µM) | relative viability (TGX 221 + Pictilisib; first compound 0.253 µM) | relative viability (TGX 221 + Pictilisib; first compound 0.8 µM) | relative viability (TGX 221 + Pictilisib; first compound 2.53 µM) | relative viability (TGX 221 + Pictilisib; first compound 8 µM) | relative viability ([1]; first compound 0.08 µM) | relative viability ([1]; first compound 0.253 µM) | relative viability ([1]; first compound 0.8 µM) | relative viability ([1]; first compound 2.53 µM) | relative viability (Ricolinostat + Lapatinib; first compound 0.08 µM) | relative viability (Ricolinostat + Lapatinib; first compound 0.253 µM) | relative viability (Ricolinostat + Lapatinib; first compound 0.8 µM) | relative viability (Ricolinostat + Lapatinib; first compound 2.53 µM) | relative viability ([2]; first compound 0.08 µM) | relative viability ([2]; first compound 0.253 µM) | relative viability ([2]; first compound 0.8 µM) | relative viability ([2]; first compound 2.53 µM) | relative viability ([2]; first compound 8 µM)
1 | NCI-H1650 | 0.524 | 0.524 | 0.645 | 0.621 | 0.508 | 0.184 | 0.191 | 0.225 | 0.17 | 0.577 | 0.72 | 0.6 | 0.752 | 0.253 | 0.393 | 0.349 | 0.322 | 0.318
2 | NCI-H650 | 0.893 | 0.768 | 0.831 | 0.92 | 0.777 | 0.763 | 0.758 | 0.788 | 0.657 | – | 0.888 | 0.734 | 0.504 | 0.45 | 0.449 | 0.428 | 0.474 | 0.428
3 | NCI-H460 | 0.339 | 0.363 | 0.23 | 0.312 | 0.378 | 0.0274 | 0.0237 | 0.0543 | 0.0362 | 0.844 | 0.91 | 1.02 | 0.764 | 0.37 | 0.406 | 0.485 | 0.577 | 0.506
4 | HOP-62 | 0.694 | 0.742 | 0.544 | 0.682 | 0.689 | 0.84 | 0.857 | 0.884 | 0.747 | 0.935 | 0.88 | 0.923 | 0.843 | 0.528 | 0.573 | 0.685 | 0.67 | 0.501
5 | NCI-H1975 | 0.282 | 0.289 | 0.271 | 0.229 | 0.285 | 0.243 | 0.227 | 0.186 | 0.179 | 0.878 | 0.914 | – | 0.664 | 0.327 | 0.369 | 0.345 | 0.333 | 0.37
6 | NCI-H838 | 0.427 | 0.364 | 0.425 | 0.495 | 0.404 | 0.254 | 0.291 | 0.289 | 0.169 | 0.683 | 1.08 | 0.955 | 0.873 | 0.251 | 0.295 | 0.317 | 0.267 | 0.269
7 | NCI-H2085 | 0.424 | 0.444 | 0.439 | 0.425 | 0.46 | – | 0.447 | 0.37 | 0.357 | – | 0.679 | 0.715 | 0.573 | 0.22 | 0.264 | 0.238 | 0.224 | 0.258
8 | NCI-H3122 | 0.619 | 0.581 | 0.635 | 0.574 | 0.581 | 0.0722 | 0.0881 | 0.105 | 0.0921 | 0.972 | 1.01 | 1.07 | 0.973 | 1 | 0.715 | 0.91 | 0.829 | 0.721
9 | HCC-15 | 0.806 | 0.706 | 0.784 | 0.71 | 0.782 | 0.3 | 0.28 | 0.382 | 0.497 | 0.729 | 0.808 | 0.854 | 0.899 | 0.522 | 0.627 | 0.601 | 0.673 | 0.61
10 | LU99A | 0.268 | 0.303 | 0.32 | 0.357 | 0.317 | 0.254 | 0.224 | 0.239 | 0.25 | 0.833 | 0.853 | 0.846 | 0.541 | 0.528 | 0.608 | 0.61 | 0.563 | 0.442
11 | UMC-11 | 0.742 | 0.783 | 0.787 | 0.723 | 0.831 | 0.985 | 1.02 | 0.964 | 0.684 | 0.699 | 0.944 | 0.906 | 0.314 | 0.328 | 0.432 | 0.573 | 0.524 | 0.374
12 | NCI-H2405 | 0.36 | 0.499 | 0.426 | 0.398 | 0.366 | 0.615 | 0.929 | 0.69 | 0.874 | 0.858 | 1.04 | 1.08 | 1.04 | 0.206 | 0.206 | 0.214 | 0.201 | 0.201
13 | NCI-H1915 | 0.892 | 0.895 | 1 | 0.805 | 0.949 | 0.71 | 0.79 | 0.784 | 0.669 | 0.965 | 0.958 | 0.858 | 0.965 | 0.335 | 0.344 | – | 0.314 | 0.34
14 | NCI-H2228 | 0.348 | 0.452 | 0.448 | 0.282 | 0.314 | 0.157 | 0.115 | 0.167 | 0.15 | 0.876 | 0.88 | 1.11 | 0.574 | 0.511 | 0.476 | 0.567 | 0.606 | 0.475
15 | NCI-H322M | 0.399 | 0.479 | 0.525 | 0.477 | 0.478 | – | 0.974 | 0.988 | 1.09 | – | 0.494 | 0.624 | 0.66 | 0.245 | 0.244 | 0.234 | 0.243 | 0.273
16 | LK-2 | 0.583 | 0.782 | 0.597 | 0.515 | 0.659 | 0.18 | 0.191 | 0.168 | 0.177 | 0.908 | 1.2 | 0.941 | 0.913 | – | 0.269 | 0.276 | 0.28 | 0.253
17 | LXF-289 | 0.789 | 0.751 | 0.711 | 0.746 | 0.729 | 0.579 | 0.655 | 0.692 | 0.672 | 0.847 | 0.907 | 0.897 | 0.731 | 0.185 | 0.188 | 0.223 | 0.23 | 0.231
18 | PC-3 [JPC-3] | 0.642 | 0.73 | 0.772 | 0.748 | 0.754 | – | 0.702 | 0.764 | 0.66 | 0.351 | 0.466 | 0.414 | 0.475 | 0.818 | 0.731 | 0.913 | 1.11 | 0.953

From the supplement of paper PMC10307832
